Where two headings read alike, the source gives them in different places.

Broadly, the IC50 is the concentration needed to halve the response being measured.

Assay [1] has as its target T1, MAGL (Homo sapiens, UniProt Q99685).
T1 construct: Proteomes (human prefrontal cortex or cell membrane fractions); from tissue
T1 sequence (Q99685 1-303): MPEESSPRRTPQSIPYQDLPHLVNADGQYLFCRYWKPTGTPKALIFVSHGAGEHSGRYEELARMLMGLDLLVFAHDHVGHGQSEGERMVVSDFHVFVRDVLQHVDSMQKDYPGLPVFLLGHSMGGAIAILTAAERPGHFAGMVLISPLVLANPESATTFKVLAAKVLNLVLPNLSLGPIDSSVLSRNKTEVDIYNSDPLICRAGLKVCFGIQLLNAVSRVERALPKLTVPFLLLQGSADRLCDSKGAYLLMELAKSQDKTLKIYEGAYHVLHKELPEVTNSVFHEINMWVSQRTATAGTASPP
In words: In vitro competitive activity-based protein profiling (gel-based, FP-Rh or HT-01 probe). Type of assay: biochemical. The gist of the method:
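Readout is SDS-PAGE of probe-labelled proteome after FP-Rh or HT-01 (1.0 μL, 50 μM stock) labelling for 30 min at room temperature. Beforehand, inhibitors at varying concentrations were preincubated 30 min at 37° C with human prefrontal cortex or cell membrane fractions at 1.0 mg/mL total protein.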

Assay [2] deals with T2, MAGL (Mus musculus, UniProt O35678).
T2 construct: from tissue; host or cells: brain of wild-type C57Bl/6J mice
T2 sequence (O35678 1-303): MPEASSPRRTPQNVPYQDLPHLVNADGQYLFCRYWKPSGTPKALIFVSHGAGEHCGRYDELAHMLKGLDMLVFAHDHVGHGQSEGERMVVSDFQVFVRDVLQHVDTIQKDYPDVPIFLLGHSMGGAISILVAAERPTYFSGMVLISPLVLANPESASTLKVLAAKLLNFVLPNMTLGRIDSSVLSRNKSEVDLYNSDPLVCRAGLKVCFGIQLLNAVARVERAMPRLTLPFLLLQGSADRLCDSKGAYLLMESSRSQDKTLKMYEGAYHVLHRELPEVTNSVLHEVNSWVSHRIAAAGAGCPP
As to the kind of experiment: Mouse brain proteomes from inhibitor treated mice (oral gavage, brain proteomes analyzed 4 h after administration). Type of assay: in vivo, mouse (C57Bl/6J). To be noted: brain proteome 4 h after administration, read-out: % Inh 5 mg/kg MGLL (Mouse). As to the method: Compounds are tested to assess their MAGL and serine hydrolase activity using the following in vitro and in vivo assays.
Preparation of Mouse Brain Proteomes from Inhibitor Treated Mice.
Inhibitors were administered to wild-type C57Bl/6J by oral gavage in a vehicle of polyethylene glycol. Each animal was sacrificed 4 h following administration and brain proteomes were prepared and analyzed according to previously established methods (See Niphakis, M. J., et al. (2011) ACS Chem. Neurosci. and Long, J. Z., et al. Nat. Chem. Biol. 5:37-44).

The mark [3] stands for this setting: PC3 proteome, read-out: IC50 MGLL PC3 (Human).
The mark [4] stands for this setting: PFC (prefrontal cortex) proteome.

Consider `CC(C)(C#Cc1c(Cl)cccc1CN1CCCC12CCN(C(=O)OC(C(F)(F)F)C(F)(F)F)CC2)C(=O)O` [Example 1, 4-(2-Chloro-6-((8-(((1,1,1,3,3,3-hexafluoropropan-2-yl)oxy)carbonyl)-1,8-diazaspiro[4.5]decan-1-yl)methyl)phenyl)-2,2-dimethylbut-3-ynoic acid], for which the IC50 at MAGL [1] (setting [3]) is under 100 nM. Also, the “% Inh MGLL PFC (Human, μM)” value on MAGL [1] (setting [4]) is given as “### (### is ≥ 75%)”. Besides, on MAGL [2], the inhibition at 5 mg/kg was in the range of 25 to 75%.

Turning to `O=C(OC(C(F)(F)F)C(F)(F)F)N1CCC2(CCCN2Cc2cc(F)cc(C3(C(=O)O)CCCC3)c2)CC1` [Example 4, 1-(3-Fluoro-5-((8-(((1,1,1,3,3,3-hexafluoropropan-2-yl)oxy)carbonyl)-1,8-diazaspiro[4.5]decan-1-yl)methyl)phenyl)cyclopentane-1-carboxylic acid], the IC50 at MAGL [1] (setting [3]) was under 100 nM. The “% Inh MGLL PFC (Human, μM)” value at MAGL [1] (setting [4]) is on record as “### (### is ≥ 75%)”. Also, the inhibition at 5 mg/kg on MAGL [2] is at least 75%.

With `CC(C)(C#Cc1cc(C(F)(F)F)ccc1CN1CCCC12CCN(C(=O)OC(C(F)(F)F)C(F)(F)F)CC2)C(=O)O` [Example 5, 4-(2-((8-(((1,1,1,3,3,3-Hexafluoropropan-2-yl)oxy)carbonyl)-1,8-diazaspiro[4.5]decan-1-yl)methyl)-5-(trifluoromethyl)phenyl)-2,2-dimethylbut-3-ynoic acid], the IC50 on MAGL [1] (setting [3]) was under 100 nM. At MAGL [2], the inhibition at 5 mg/kg is at least 75%.

As to `O=C(OC(C(F)(F)F)C(F)(F)F)N1CCC2(CCCN2Cc2ccc(C(F)(F)F)cc2C2(C(=O)O)CCCC2)CC1` [Example 7, 1-(2-((8-(((1,1,1,3,3,3-hexafluoropropan-2-yl)oxy)carbonyl)-1,8-diazaspiro[4.5]decan-1-yl)methyl)-5-(trifluoromethyl)phenyl)cyclopentane-1-carboxylic acid], the IC50 on MAGL [1] (setting [3]) was under 100 nM. At MAGL [2], the inhibition at 5 mg/kg is at least 75%.

In the case of `CN(Cc1cccc(Cl)c1C1(C(=O)O)CCCC1)C1(C)CCN(C(=O)OC(C(F)(F)F)C(F)(F)F)CC1` [Example 9, 1-(2-Chloro-6-(((1-(((1,1,1,3,3,3-hexafluoropropan-2-yl)oxy)carbonyl)-4-methylpiperidin-4-yl)(methyl)amino)methyl)phenyl)cyclopentane-1-carboxylic acid], the IC50 on MAGL [1] (setting [3]) is under 100 nM. Moreover, the “% Inh MGLL PFC (Human, μM)” value on MAGL [1] (setting [4]) is reported as “### (### is ≥ 75%)”. Besides, the inhibition at 5 mg/kg at MAGL [2] was at most 25%.

Regarding `O=C(O)C1CCN(Cc2cc(C(F)(F)F)ccc2C(=O)N2CCCC23CCN(C(=O)OC(C(F)(F)F)C(F)(F)F)CC3)CC1` [Example 10, 1-(2-(8-(((1,1,1,3,3,3-Hexafluoropropan-2-yl)oxy)carbonyl)-1,8-diazaspiro[4.5]decane-1-carbonyl)-5-(trifluoromethyl)benzyl)piperidine-4-carboxylic acid], the “% Inh MGLL PFC (Human, μM)” value on MAGL [1] (setting [4]) is on record as “### (### is ≥ 75%)”. On MAGL [2], the inhibition at 5 mg/kg is at least 75%.

On to `CN(Cc1ccc(C(F)(F)F)cc1N1CCC(C(=O)O)CC1)C1(C)CCN(C(=O)OC(C(F)(F)F)C(F)(F)F)CC1` [Example 14, 1-(2-(((1-(((1,1,1,3,3,3-Hexafluoropropan-2-yl)oxy)carbonyl)-4-methylpiperidin-4-yl)(methyl)amino)methyl)-5-(trifluoromethyl)phenyl)piperidine-4-carboxylic acid], for which the IC50 at MAGL [1] (setting [3]) was under 100 nM. At MAGL [2], the inhibition at 5 mg/kg is at least 75%.

As to `CC1(C(=O)O)CCCN(c2cc(C(F)(F)F)ccc2CN2CC3(CCN(C(=O)OC(C(F)(F)F)C(F)(F)F)CC3)C2)C1` (stereo not drawn) [Example 112, 1-(2-((7-(((1,1,1,3,3,3-Hexafluoropropan-2-yl)oxy)carbonyl)-2,7-diazaspiro[3.5]nonan-2-yl)methyl)-5-(trifluoromethyl)phenyl)-3-methylpiperidine-3-carboxylic acid], the IC50 at MAGL [1] (setting [3]) is under 100 nM. In addition, the inhibition at 5 mg/kg at MAGL [2] is at most 25%.

For the compound `CC1(C(=O)O)CCCN(c2cc(CN3CC4(CCN(C(=O)OC(C(F)(F)F)C(F)(F)F)CC4)C3)cc(C(F)(F)F)c2)C1` (stereo not drawn) [Example 114, 1-(3-((7-(((1,1,1,3,3,3-Hexafluoropropan-2-yl)oxy)carbonyl)-2,7-diazaspiro[3.5]nonan-2-yl)methyl)-5-(trifluoromethyl)phenyl)-3-methylpiperidine-3-carboxylic acid], the IC50 at MAGL [1] (setting [3]) is under 100 nM; on MAGL [1] (PFC (prefrontal cortex) proteome, read-out: IC50 MGLL PFC (Human)), under 100 nM. At MAGL [2], the inhibition at 5 mg/kg was in the range of 25 to 75%.

With `CN(Cc1ccc(C(F)(F)F)cc1N1CCC(C(=O)O)C1)C1(C)CCN(C(=O)OC(C(F)(F)F)C(F)(F)F)CC1` (stereo not drawn) [Example 118, 1-(2-(((1-(((1,1,1,3,3,3-Hexafluoropropan-2-yl)oxy)carbonyl)-4-methylpiperidin-4-yl)(methyl)amino)methyl)-5-(trifluoromethyl)phenyl)pyrrolidine-3-carboxylic acid], on MAGL [1] (setting [3]), the IC50 was under 100 nM. For the same compound, the inhibition at 5 mg/kg at MAGL [2] was at least 75%.

For the compound `CC1(N(CC(=O)O)Cc2ccc(C(F)(F)F)cc2N2CCOCC2)CCN(C(=O)OC(C(F)(F)F)C(F)(F)F)CC1` [Example 124, N-(1-(((1,1,1,3,3,3-Hexafluoropropan-2-yl)oxy)carbonyl)-4-methylpiperidin-4-yl)-N-(2-morpholino-4-(trifluoromethyl)benzyl)glycine], on MAGL [1] (setting [3]), the IC50 is under 100 nM. Further, on MAGL [2], the inhibition at 5 mg/kg was at least 75%.

As for `O=C(O)CN1CC2CC1CN2c1cc(CN2CCC3(CCN(C(=O)OC(C(F)(F)F)C(F)(F)F)CC3)C2)cc(C(F)(F)F)c1` (stereo not drawn) [Example 125, 2-(5-{3-[(8-{[(1,1,1,3,3,3-Hexafluoropropan-2-yl)oxy]carbonyl}-2,8-diazaspiro[4.5]decan-2-yl)methyl]-5-(trifluoromethyl)phenyl}-2,5-diazabicyclo[2.2.1]heptan-2-yl)acetic acid], the IC50 on MAGL [1] (setting [3]) was under 100 nM. Besides, the inhibition at 5 mg/kg at MAGL [2] is at most 25%.

Turning to `O=C(O)CN1CC2CC1CN2c1cc(C(F)(F)F)ccc1CN1CCCC12CCN(C(=O)OC(C(F)(F)F)C(F)(F)F)CC2` (stereo not drawn) [Example 126, 2-(5-{2-[(8-{[(1,1,1,3,3,3-Hexafluoropropan-2-yl)oxy]carbonyl}-1,8-diazaspiro[4.5]decan-1-yl)methyl]-5-(trifluoromethyl)phenyl}-2,5-diazabicyclo[2.2.1]heptan-2-yl)acetic acid], at MAGL [1] (setting [3]), the IC50 was under 100 nM. In addition, on MAGL [2], the inhibition at 5 mg/kg is at most 25%.

Consider `O=C(O)CN1CC2CC1CN2c1cc(C(F)(F)F)ccc1CN1CC2(CCN(C(=O)OC(C(F)(F)F)C(F)(F)F)CC2)C1` (stereo not drawn) [Example 127, 2-(5-{2-[(7-{[(1,1,1,3,3,3-Hexafluoropropan-2-yl)oxy]carbonyl}-2,7-diazaspiro[3.5]nonan-2-yl)methyl]-5-(trifluoromethyl)phenyl}-2,5-diazabicyclo[2.2.1]heptan-2-yl)acetic acid], for which the IC50 at MAGL [1] (setting [3]) is under 100 nM. On MAGL [2], the inhibition at 5 mg/kg is at most 25%.

In the case of `O=C(O)CN1CC2CC1CN2c1cc(CN2CCCC23CCN(C(=O)OC(C(F)(F)F)C(F)(F)F)CC3)cc(C(F)(F)F)c1` (stereo not drawn) [Example 128, 2-(5-{3-[(8-{[(1,1,1,3,3,3-Hexafluoropropan-2-yl)oxy]carbonyl}-1,8-diazaspiro[4.5]decan-1-yl)methyl]-5-(trifluoromethyl)phenyl}-2,5-diazabicyclo[2.2.1]heptan-2-yl)acetic acid], the concentration for half-maximal inhibition (IC50) at MAGL [1] (setting [3]) was under 100 nM. Moreover, the inhibition at 5 mg/kg at MAGL [2] was at most 25%.

For `CC1(C(=O)O)CN(c2cc(C(F)(F)F)ccc2CN2CC3(CCN(C(=O)OC(C(F)(F)F)C(F)(F)F)CC3)C2)CCO1` (stereo not drawn) [Example 130, 4-(2-((7-(((1,1,1,3,3,3-Hexafluoropropan-2-yl)oxy)carbonyl)-2,7-diazaspiro[3.5]nonan-2-yl)methyl)-5-(trifluoromethyl)phenyl)-2-methylmoipholine-2-carboxylic acid], the IC50 at MAGL [1] (setting [3]) is under 100 nM. Besides, the inhibition at 5 mg/kg at MAGL [2] is at most 25%.

`CN(Cc1ccc(C(F)(F)F)cc1C1(C(=O)O)CCCC1)C1(C)CCN(C(=O)OC(C(F)(F)F)C(F)(F)F)CC1` [Example 133, 1-(2-{[(1-{[(1,1,1,3,3,3-Hexafluoropropan-2-yl)oxy]carbonyl}-4-methylpiperidin-4-yl)(methyl)amino]methyl}-5-(trifluoromethyl)phenyl)cyclopentane-1-carboxylic acid]: the IC50 at MAGL [1] (setting [3]) is under 100 nM. Further, at MAGL [1] (setting [4]), the “% Inh MGLL PFC (Human, μM)” value is given as “### (### is ≥ 75%)”. Moreover, at MAGL [2], the inhibition at 5 mg/kg was at least 75%.

For the origin of these results see patent US20210214375A1 (LUNDBECK LA JOLLA RESEARCH CENTER, INC., priority 2017, published 2021).
